As a reminder, the IC50 is the concentration that inhibits the measured activity by half. High values mean lower potency, low ones higher potency. Broadly, the efflux ratio is a quotient of directional permeabilities that is used to spot active efflux.

Data set [1] concerns the target Beta-secretase 1 (Homo sapiens, UniProt P56817). The data set can be described thus: Inhibition of BACE-1.
The test system of data set [2] is P-gp. As to the kind of experiment: (§1) Apparent permeability in human Caco-2 cells assessed as Pgp efflux ratio from basolateral to apical side to apical to basolateral side. It is filed as ADME, cell-based. (Caco-2 cells form a polarised layer with tight junctions and transporters.)
Data set [3] concerns Caco-2. The data set is described as §1. In kind it is ADME, cell-based.

Sequence of Beta-secretase 1 (P56817 whole entry): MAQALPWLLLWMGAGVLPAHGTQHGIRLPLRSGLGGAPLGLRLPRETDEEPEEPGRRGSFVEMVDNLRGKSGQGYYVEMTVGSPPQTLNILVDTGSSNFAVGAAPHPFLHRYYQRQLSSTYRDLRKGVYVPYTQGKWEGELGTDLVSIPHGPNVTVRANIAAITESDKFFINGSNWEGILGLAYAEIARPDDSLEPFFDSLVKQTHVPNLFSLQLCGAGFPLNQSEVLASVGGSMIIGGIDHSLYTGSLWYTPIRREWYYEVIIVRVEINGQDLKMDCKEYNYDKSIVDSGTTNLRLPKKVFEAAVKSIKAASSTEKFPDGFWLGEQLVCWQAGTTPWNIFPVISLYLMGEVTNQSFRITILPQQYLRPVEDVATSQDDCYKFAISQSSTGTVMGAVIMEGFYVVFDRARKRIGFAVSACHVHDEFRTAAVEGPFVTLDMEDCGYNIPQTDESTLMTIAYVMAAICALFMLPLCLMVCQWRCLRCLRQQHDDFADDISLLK

Compound `COc1ccc2c(c1)CCC2(Cc1ccc(C(F)(F)F)cc1)c1cn(C)c(N)n1` (stereo not given) had an IC50 in data set [1] of 350 nM.

`COc1ccc2c(c1F)CCC2(Cc1ccc(C(F)(F)F)cc1)c1cn(C)c(N)n1` (stereo not given) displayed an IC50 in data set [1] of 63 nM. In data set [2], the efflux ratio turned out to be 3.6.

Take `COc1ccc(C(Cc2ccc(C(F)(F)F)cc2)c2cn(C)c(N)n2)cc1` (stereo not given): 1800 nM corresponded to half-maximal inhibition in data set [1] (IC50). For the same compound, the Ratio in data set [3] worked out at 4.

The values are drawn from ChEMBL document CHEMBL1155328, “A conformational constraint improves a beta-secretase inhibitor but for an unexpected reason” (Bioorg Med Chem Lett, 2009).
